Here are results for 13 compounds from patent publication US11033556B2, “Bicyclic sulfonamides” (priority 2019, dated 2021).

Assay [1] deals with HBV. The assay can be described thus: HBV-DNA Antiviral Assay Using HepG2.2.15 Cells. The format is cell-based. On the procedure:
The following assay procedure describes the HBV antiviral assay. This assay uses HepG2.2.15 cells, which have been transfected with HBV genome, and extracellular HBV DNA quantification as endpoint. Cell viability is assessed in parallel by measuring the intracellular ATP content using the CellTiter-Glo® reagent from Promega.
On day 0, HepG2.2.15 cells were seeded in 96-well plates at a density of 6.0×10^4 cells/well(0.1 ml/well). The cells were incubated at 37° C. and 5% CO2.
On day 1, the test articles were diluted and added to cell culture wells (8 concentrations, 4-fold dilution, in duplicate). GLS4, Tenofovir and Sorafenib were used as reference compounds. 100 μl of culture medium containing the compounds was added to the plate, and the final total volume per well was 200 μl. The final concentration of DMSO in the culture medium was 0.5%. The plate map of compound treatment is shown below. The cells were cultured at 37° C. and 5% CO2 for 3 days.
On day 4, the plates were refreshed with culture media with compounds.
On day 7, cell viability was assessed using the CellTiter-Glo®, and the cell culture supernatants were collected for determination of HBV DNA by qPCR.
Extracellular DNA was isolated with QIAamp 96 DNA Blood Kit per the manufacturer's manual. HBV DNA was then quantified by qPCR with HBV specific primers and probes as specified in Table 2 using the FastStart Universal MasterMix from Roche on an ABI-7900HT. The PCR cycle program consisted of 95° C. for 10 min, followed by 40 cycles at 95° C. for 15 sec and 60° C. for 1 min.
A DNA standard was prepared by dilution of the pAAV2 HBV1.3 plasmid with concentrations ranging from 10 to 1×10^7 […] and used to generate a standard curve by plotting Ct value vs. the concentration of the HBV plasmid DNA standard. The quantity of HBV DNA in each sample was determined by interpolating from the standard curve.
Cell viability was calculated as follows: % Cell viability=(luminescence value of test sample−average luminescence value of blank)/(average luminescence value of 0.5% DMSO control−average luminescence of blank)×100%. HBV DNA inhibition was calculated as follows: 100−(HBV DNA copy number of test sample−HBV DNA copy number of ETV)/HBV DNA copy number of 0.5% DMSO control−HBV DNA copy number of ETV)×100%. The CC50, EC50 and EC90 values were determined by dose-response curves fitted by GraphPad Prism using “log (agonist) vs. response—Variable slope”.

Assay [2] deals with genotype D HBV. Put plainly: HBV-DNA Antiviral Assay Using HepG2.117 Cells. The format is cell-based. Conditions: intracellular HBV DNA by qPCR, day 4. On the procedure: The following assay procedure describes the HBV antiviral assay, using HepG2.117 cells, which carry a stably integrated genotype D HBV genome under the control of a Tet-off promoter, and intracellular HBV DNA quantification as endpoint. Cell viability is assessed in parallel by measuring the intracellular ATP content using ATPlite (Perkin Elmer).
On day 0, HepG2.117 cells (which are maintained in routine cell culture with doxycycline present in the medium at a final concentration of 1 μg/mL) were seeded in 96-well plates (white with clear bottom) at a density of 2.0×10^4 cells/well (0.1 mL/well) in medium without doxycycline to induce pgRNA transcription and subsequent formation of HBV particles. The cells were incubated at 37° C. and 5% CO2.
On day 1, medium was removed from each well, the test articles were diluted in culture medium without doxcycyline and 100 μL was added to cell culture wells (9 concentrations, 4-fold dilution). For each plate, 6 untreated (merely DMSO) wells were included. The final concentration of DMSO in the culture medium was 2%. Each plate was prepared in duplicate (one for HBV DNA extraction, one for ATPlite measurement). The cells were incubated at 37° C. and 5% CO2 for 3 days.
On day 4, cell viability was assessed using ATPlite and cell lysates were prepared for HBV DNA extraction and subsequent quantification by qPCR.
Medium was removed from each well and 100 μL of 0.33% NP-40 in H2O was added to each well. Plates were sealed, incubated at 4° C. for 5 mins, vortexed extensively and centrifuged briefly. Next, 35 μL of lysate was added to 65 μL QuickExtract DNA Extraction Solution (Epicentre) in a PCR plate for each well. PCR plate was incubated at 65° C. for 6 mins, 98° C. for 2 mins and finally cooled to 4° C. HBV DNA was then quantified by qPCR with HBV-specific primers and probes as specified in Table 4 using the Bio-Rad SSOAdvanced Universal Probes Supermix on a CFX96 machine (Bio-Rad). The PCR cycle program consisted of 95° C. for 3 mins, followed by 40 cycles at 95° C. for 10 sec and 60° C. for 30 sec.
A DNA standard was prepared by dilution of an IDT gBlock corresponding to the amplicon with concentrations ranging from 10^2 to 10^8 copies/input (i.e. per 4 μL) and used to generate a standard curve by plotting Cq values vs. HBV DNA standard concentration. The quantity of HBV DNA in each sample was determined by interpolating from the standard curve.
Cell viability was calculated as follows: % Cell viability=(luminescence value of test sample)/(average luminescence value of 2% DMSO control)×100%. HBV DNA inhibition was calculated as follows: 100−(HBV DNA copy number of test sample)/(average HBV DNA copy number of 2% DMSO control)×100%. No normalization to entecavir was required due to the excellent dynamic window of this assay. The CC50, EC50 and EC90 values were determined by dose-response curves fitted by GraphPad Prism using “log (agonist) vs. response—Variable slope”.

The mark [3] stands for this setting: Hepatitis B virus, HepG2.2.15 cells, extracellular HBV DNA by qPCR, one class for the group of four: *at least 2 of the diastereomers have the indicated activity, read-out: EC50.

Where two headings read alike, the source gives them in different places.

For the compound `C=C[C@H]1COc2c(cn(C)c2C(=O)Nc2ccc(F)c(C#N)c2)S(=O)(=O)N1` [Compound 1, (3S)—N-(3-cyano-4-fluorophenyl)-3-ethenyl-7-methyl-1,1-dioxo-2H,3H,4H-11λ6-pyrrolo[3,4-b][1,4,5]oxathiazepine-6-carboxamide], the EC50 in assay [1] (HepG2.2.15 cells, extracellular HBV DNA by qPCR, day 7, read-out: EC50) is less than 1000 nM; in assay [2] it was 1 to 10 nM. Regarding `C#C[C@@H](O)[C@H]1CCc2c(cn(C)c2C(=O)Nc2ccc(F)c(C#N)c2)S(=O)(=O)N1` [Compound 2A, (3R)—N-(3-cyano-4-fluorophenyl)-3-[(1R)-1-hydroxyprop-2-yn-1-yl]-7-methyl-1,1-dioxo-2H,3H,4H,5H-1λ6-pyrrolo[3,4-f][1,2]thiazepine-6-carboxamide], the EC50 in assay [1] (setting [3]) was less than 1000 nM.

As for `C#C[C@H](O)[C@H]1CCc2c(cn(C)c2C(=O)Nc2ccc(F)c(C#N)c2)S(=O)(=O)N1` [Compound 2B, (3R)—N-(3-cyano-4-fluorophenyl)-3-[(1S)-1-hydroxyprop-2-yn-1-yl]-7-methyl-1,1-dioxo-2H,3H,4H,5H-1λ6-pyrrolo[3,4-f][1,2]thiazepine-6-carboxamide], the EC50 in assay [1] (setting [3]) was less than 1000 nM. On the same count and under the same terms, the value for `C#C[C@H](O)[C@@H]1CCc2c(cn(C)c2C(=O)Nc2ccc(F)c(C#N)c2)S(=O)(=O)N1` [Compound 2C, (3S)—N-(3-cyano-4-fluorophenyl)-3-[(1S)-1-hydroxyprop-2-yn-1-yl]-7-methyl-1,1-dioxo-2H,3H,4H,5H-1λ6-pyrrolo[3,4-f][1,2]thiazepine-6-carboxamide] was less than 1000 nM; that for `C#C[C@@H](O)[C@@H]1CCc2c(cn(C)c2C(=O)Nc2ccc(F)c(C#N)c2)S(=O)(=O)N1` [Compound 2D, (3S)—N-(3-cyano-4-fluorophenyl)-3-[(1R)-1-hydroxyprop-2-yn-1-yl]-7-methyl-1,1-dioxo-2H,3H,4H,5H-1λ6-pyrrolo[3,4-f][1,2]thiazepine-6-carboxamide] was less than 1000 nM. In turn, `CC#C[C@@H](O)[C@H]1CCc2c(cn(C)c2C(=O)Nc2ccc(F)c(C#N)c2)S(=O)(=O)N1` [Compound 3A, (3R)—N-(3-cyano-4-fluorophenyl)-3-[(1R)-1-hydroxybut-2-yn-1-yl]-7-methyl-1,1-dioxo-2H,3H,4H,5H-1λ6-pyrrolo[3,4-f][1,2]thiazepine-6-carboxamide] gave an EC50 in assay [1] (Hepatitis B virus, HepG2.2.15) of less than 1000 nM. The compound `CC#C[C@H](O)[C@@H]1CCc2c(cn(C)c2C(=O)Nc2ccc(F)c(C#N)c2)S(=O)(=O)N1` [Compound 3C, (3S)—N-(3-cyano-4-fluorophenyl)-3-[(1S)-1-hydroxybut-2-yn-1-yl]-7-methyl-1,1-dioxo-2H,3H,4H,5H-1λ6-pyrrolo[3,4-f][1,2]thiazepine-6-carboxamide] returned an EC50 in assay [1] (Hepatitis B virus, HepG2.2.15) of less than 1000 nM. On the same count and under the same terms, the value for `CC#C[C@@H](O)[C@@H]1CCc2c(cn(C)c2C(=O)Nc2ccc(F)c(C#N)c2)S(=O)(=O)N1` [Compound 3D, (3S)—N-(3-cyano-4-fluorophenyl)-3-[(1R)-1-hydroxybut-2-yn-1-yl]-7-methyl-1,1-dioxo-2H,3H,4H,5H-1λ6-pyrrolo[3,4-f][1,2]thiazepine-6-carboxamide] was less than 1000 nM.

Take `C=C[C@@H](O)[C@H]1CCc2c(cn(C)c2C(=O)Nc2ccc(F)c(C#N)c2)S(=O)(=O)N1` [Compound 4A, (3R)—N-(3-cyano-4-fluorophenyl)-3-[(1R)-1-hydroxyprop-2-en-1-yl]-7-methyl-1,1-dioxo-2H,3H,4H,5H-1λ6-pyrrolo[3,4-f][1,2]thiazepine-6-carboxamide]: in assay [1] (setting [3]), the EC50 is less than 1000 nM. As to `C=C[C@H](O)[C@H]1CCc2c(cn(C)c2C(=O)Nc2ccc(F)c(C#N)c2)S(=O)(=O)N1` [Compound 4B, (3R)—N-(3-cyano-4-fluorophenyl)-3-[(1S)-1-hydroxyprop-2-en-1-yl]-7-methyl-1,1-dioxo-2H,3H,4H,5H-1λ6-pyrrolo[3,4-f][1,2]thiazepine-6-carboxamide], the EC50 in assay [1] (setting [3]) was less than 1000 nM. In the case of `C=C[C@H](O)[C@@H]1CCc2c(cn(C)c2C(=O)Nc2ccc(F)c(C#N)c2)S(=O)(=O)N1` [Compound 4C, (3S)—N-(3-cyano-4-fluorophenyl)-3-[(1S)-1-hydroxyprop-2-en-1-yl]-7-methyl-1,1-dioxo-2H,3H,4H,5H-1λ6-pyrrolo[3,4-f][1,2]thiazepine-6-carboxamide], the EC50 in assay [1] (setting [3]) is less than 1000 nM. Turning to `C=C[C@@H](O)[C@@H]1CCc2c(cn(C)c2C(=O)Nc2ccc(F)c(C#N)c2)S(=O)(=O)N1` [Compound 4D, (3S)—N-(3-cyano-4-fluorophenyl)-3-[(1R)-1-hydroxyprop-2-en-1-yl]-7-methyl-1,1-dioxo-2H,3H,4H,5H-1λ6-pyrrolo[3,4-f][1,2]thiazepine-6-carboxamide], the EC50 in assay [1] (setting [3]) is less than 1000 nM. As for `Cn1cc2c(c1C(=O)Nc1ccc(F)c(C#N)c1)OC[C@H](C=C(F)F)NS2(=O)=O` [Compound 6A], the EC50 in assay [1] (Hepatitis B virus, 168 h, HepG2.2.15 cells, extracellular HBV DNA by qPCR, day 7, read-out: EC50) is less than 1000 nM.
